Reference: US12552783B2, “Modulators of proteolysis and associated methods of use” (Arvinas Operations, Inc., priority 2018, dated 2026)

Target: KRas (Homo sapiens, UniProt P01116, G12C)
Assay: KRas degradation in SW1573 cells by Western blot, normalized to GAPDH (data of Table 14)
Assay type: cell-based
Settings: SW1573 cells
In short: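 SW1573 cells, homozygous for the KRas G12C mutation and maintained in DMEM with 10% FBS and 1% penicillin-streptomycin, were seeded in 12-well plates, allowed to attach overnight at 37° C. under 5% CO2, then serum-starved for 24 hours before compound exposure. KRas levels were measured by Western blot, normalized to GAPDH, and compared with DMSO controls to give percent degradation, DC50 and Dmax.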

Row | Compound | Dmax [%] | Percent Degradation at Indicated Concentration (μM) (0.1 μM) | Percent Degradation at Indicated Concentration (μM) (0.3 μM) | Percent Degradation at Indicated Concentration (μM) (1 μM) | Percent Degradation at Indicated Concentration (μM) (0.03 μM)
1 | C=CC(=O)N1CCN(c2nc(OC[C@@H]3C[C@@H](OCCOCCOCCOCCNc4cccc5c4C(=O)N(C4CCC(=O)NC4=O)C5=O)CN3C)nc3c2CCN(c2cccc4ccccc24)C3)C[C@@H]1CC#N (stereo partly drawn) [compound 518, 2-((2S)-1-acryloyl-4-(2-(((2S,4R)-4-(2-(2-(2-(2-((2-(2,6-dioxopiperidin-3-yl)-1,3-dioxoisoindolin-4-yl)amino)ethoxy)ethoxy)ethoxy)ethoxy)-1-methylpyrrolidin-2-yl)methoxy)-7-(naphthalen-1-yl)-5,6,7,8-tetrahydropyrido[3,4-d]pyrimidin-4-yl)piperazin-2-yl)acetonitrile] | ≥ 70 | B (35 < B < 70) | A (A > 70) | C (Percent Degradation: C ≤ 35) | 
2 | C=CC(=O)N1CCN(c2nc(OC[C@@H]3C[C@@H](OCCOCCOCCOCCOCCNc4cccc5c4C(=O)N(C4CCC(=O)NC4=O)C5=O)CN3C)nc3c2CCN(c2cccc4ccccc24)C3)C[C@@H]1CC#N (stereo partly drawn) [compound 519, 2-((2S)-1-acryloyl-4-(2-(((2S,4R)-4-((14-((2-(2,6-dioxopiperidin-3-yl)-1,3-dioxoisoindolin-4-yl)amino)-3,6,9,12-tetraoxatetradecyl)oxy)-1-methylpyrrolidin-2-yl)methoxy)-7-(naphthalen-1-yl)-5,6,7,8-tetrahydropyrido[3,4-d]pyrimidin-4-yl)piperazin-2-yl)acetonitrile] | ≥ 70 | B (35 < B < 70) | A (A > 70) | C (Percent Degradation: C ≤ 35) | 
3 | C=CC(=O)N1CCN(c2nc(O[C@H](C)CN3CCC(OCCOc4cc([C@@H](C(=O)N5C[C@H](O)C[C@H]5C(=O)N[C@@H](C)c5ccc(-c6scnc6C)cc5)C(C)C)on4)CC3)nc3c(F)c(-c4cc(O)cc5ccccc45)c(Cl)cc23)CC1 [compound 524, (2S,4R)-1-((2S)-2-(3-(2-((1-((2R)-2-((4-(4-acryloylpiperazin-1-yl)-6-chloro-8-fluoro-7-(3-hydroxynaphthalen-1-yl)quinazolin-2-yl)oxy)propyl)piperidin-4-yl)oxy)ethoxy)isoxazol-5-yl)-3-methylbutanoyl)-4-hydroxy-N-((S)-1-(4-(4-methylthiazol-5-yl)phenyl)ethyl)pyrrolidine-2-carboxamide] |  | C (Percent Degradation: C ≤ 35) | C (Percent Degradation: C ≤ 35) |  | C (Percent Degradation: C ≤ 35)
4 | C=CC(=O)N1CCN(c2nc(O[C@H](C)CN3CCC(OCCOc4cc([C@H](C(=O)N5C[C@H](O)C[C@H]5C(=O)N[C@@H](C)c5ccc(-c6scnc6C)cc5)C(C)C)on4)CC3)nc3c(F)c(-c4cc(O)cc5ccccc45)c(Cl)cc23)CC1 [compound 525, (2S,4R)-1-((2R)-2-(3-(2-((1-((2R)-2-((4-(4-acryloylpiperazin-1-yl)-6-chloro-8-fluoro-7-(3-hydroxynaphthalen-1-yl)quinazolin-2-yl)oxy)propyl)piperidin-4-yl)oxy)ethoxy)isoxazol-5-yl)-3-methylbutanoyl)-4-hydroxy-N-((S)-1-(4-(4-methylthiazol-5-yl)phenyl)ethyl)pyrrolidine-2-carboxamide] |  | C (Percent Degradation: C ≤ 35) | C (Percent Degradation: C ≤ 35) |  | C (Percent Degradation: C ≤ 35)
5 | C=CC(=O)N1CCN(c2nc(O[C@H](C)CN3CCC(OCCOCCOc4cc([C@@H](C(=O)N5C[C@H](O)C[C@H]5C(=O)N[C@@H](C)c5ccc(-c6scnc6C)cc5)C(C)C)on4)CC3)nc3c(F)c(-c4cc(O)cc5ccccc45)c(Cl)cc23)CC1 [compound 526, (2S,4R)-1-((2S)-2-(3-(2-(2-((1-((2R)-2-((4-(4-acryloylpiperazin-1-yl)-6-chloro-8-fluoro-7-(3-hydroxynaphthalen-1-yl)quinazolin-2-yl)oxy)propyl)piperidin-4-yl)oxy)ethoxy)ethoxy)isoxazol-5-yl)-3-methylbutanoyl)-4-hydroxy-N-((S)-1-(4-(4-methylthiazol-5-yl)phenyl)ethyl)pyrrolidine-2-carboxamide] |  | C (Percent Degradation: C ≤ 35) | C (Percent Degradation: C ≤ 35) |  | C (Percent Degradation: C ≤ 35)
6 | C=CC(=O)N1CCN(c2nc(O[C@H](C)CN3CCC(OCCOCCOc4cc([C@H](C(=O)N5C[C@H](O)C[C@H]5C(=O)N[C@@H](C)c5ccc(-c6scnc6C)cc5)C(C)C)on4)CC3)nc3c(F)c(-c4cc(O)cc5ccccc45)c(Cl)cc23)CC1 [compound 527, (2S,4R)-1-((2R)-2-(3-(2-(2-((1-((2R)-2-((4-(4-acryloylpiperazin-1-yl)-6-chloro-8-fluoro-7-(3-hydroxynaphthalen-1-yl)quinazolin-2-yl)oxy)propyl)piperidin-4-yl)oxy)ethoxy)ethoxy)isoxazol-5-yl)-3-methylbutanoyl)-4-hydroxy-N-((S)-1-(4-(4-methylthiazol-5-yl)phenyl)ethyl)pyrrolidine-2-carboxamide] |  | C (Percent Degradation: C ≤ 35) | C (Percent Degradation: C ≤ 35) |  | C (Percent Degradation: C ≤ 35)
7 | C=CC(=O)N1CCN(c2nc(O[C@H](C)CN3CCC(OCCOCCOCCOc4cc([C@@H](C(=O)N5C[C@H](O)C[C@H]5C(=O)N[C@@H](C)c5ccc(-c6scnc6C)cc5)C(C)C)on4)CC3)nc3c(F)c(-c4cc(O)cc5ccccc45)c(Cl)cc23)CC1 [compound 528, (2S,4R)-1-((2S)-2-(3-(2-(2-(2-((1-((2R)-2-((4-(4-acryloylpiperazin-1-yl)-6-chloro-8-fluoro-7-(3-hydroxynaphthalen-1-yl)quinazolin-2-yl)oxy)propyl)piperidin-4-yl)oxy)ethoxy)ethoxy)ethoxy)isoxazol-5-yl)-3-methylbutanoyl)-4-hydroxy-N-((S)-1-(4-(4-methylthiazol-5-yl)phenyl)ethyl)pyrrolidine-2-carboxamide] |  | C (Percent Degradation: C ≤ 35) | C (Percent Degradation: C ≤ 35) |  | C (Percent Degradation: C ≤ 35)
8 | C=CC(=O)N1CCN(c2nc(O[C@H](C)CN3CCC(OCCOCCOCCOc4cc([C@H](C(=O)N5C[C@H](O)C[C@H]5C(=O)N[C@@H](C)c5ccc(-c6scnc6C)cc5)C(C)C)on4)CC3)nc3c(F)c(-c4cc(O)cc5ccccc45)c(Cl)cc23)CC1 [compound 529, (2S,4R)-1-((2R)-2-(3-(2-(2-(2-((1-((2R)-2-((4-(4-acryloylpiperazin-1-yl)-6-chloro-8-fluoro-7-(3-hydroxynaphthalen-1-yl)quinazolin-2-yl)oxy)propyl)piperidin-4-yl)oxy)ethoxy)ethoxy)ethoxy)isoxazol-5-yl)-3-methylbutanoyl)-4-hydroxy-N-((S)-1-(4-(4-methylthiazol-5-yl)phenyl)ethyl)pyrrolidine-2-carboxamide] |  | C (Percent Degradation: C ≤ 35) | C (Percent Degradation: C ≤ 35) |  | C (Percent Degradation: C ≤ 35)
9 | C=CC(=O)N1CCN(c2nc(O[C@H](C)CN3CCC(OCCOCCOCCOCCOc4cc([C@H](C(=O)N5C[C@H](O)C[C@H]5C(=O)N[C@@H](C)c5ccc(-c6scnc6C)cc5)C(C)C)on4)CC3)nc3c(F)c(-c4cc(O)cc5ccccc45)c(Cl)cc23)CC1 [compound 530, (2S,4R)-1-((2R)-2-(3-(2-(2-(2-(2-((1-((2R)-2-((4-(4-acryloylpiperazin-1-yl)-6-chloro-8-fluoro-7-(3-hydroxynaphthalen-1-yl)quinazolin-2-yl)oxy)propyl)piperidin-4-yl)oxy)ethoxy)ethoxy)ethoxy)ethoxy)isoxazol-5-yl)-3-methylbutanoyl)-4-hydroxy-N-((S)-1-(4-(4-methylthiazol-5-yl)phenyl)ethyl)pyrrolidine-2-carboxamide] |  | C (Percent Degradation: C ≤ 35) | C (Percent Degradation: C ≤ 35) |  | C (Percent Degradation: C ≤ 35)
10 | C=CC(=O)N1CCN(c2nc(O[C@H](C)CN3CCC(OCCOCCOCCOCCOc4cc([C@@H](C(=O)N5C[C@H](O)C[C@H]5C(=O)N[C@@H](C)c5ccc(-c6scnc6C)cc5)C(C)C)on4)CC3)nc3c(F)c(-c4cc(O)cc5ccccc45)c(Cl)cc23)CC1 [compound 531, (2S,4R)-1-((2S)-2-(3-(2-(2-(2-(2-((1-((2R)-2-((4-(4-acryloylpiperazin-1-yl)-6-chloro-8-fluoro-7-(3-hydroxynaphthalen-1-yl)quinazolin-2-yl)oxy)propyl)piperidin-4-yl)oxy)ethoxy)ethoxy)ethoxy)ethoxy)isoxazol-5-yl)-3-methylbutanoyl)-4-hydroxy-N-((S)-1-(4-(4-methylthiazol-5-yl)phenyl)ethyl)pyrrolidine-2-carboxamide] |  | C (Percent Degradation: C ≤ 35) | C (Percent Degradation: C ≤ 35) |  | C (Percent Degradation: C ≤ 35)
